Experiments:
[1] = Antioxidant action examined by using stable radicals (DPPH reduction activity, M.S. Blois method); format: biochemical; settings: 0.1 mM DPPH solution in ethanol, absorbance at 517 nm after 20 minutes; read-out: 50% radical eliminating concentration
Experimental: Test example 1 (Antioxidant action examined by using stable radicals)
Reduction activity of α,-α-diphenyl-β-picrylhydrazyl (DPPH) which was a stable free radical was examined according to the M.S. Blois method (Nature, vol. 181, page. 1199, 1958) and used as an index to antioxidant action. Thus, specimens were added to 3 mℓ of a 0.1 mM DPPH solution in ethanol, and absorbance at a wavelength of 517 nm was measured using a spectrophotometer after 20 minutes. The difference in absorbance from the solvent control [0.5% or less of dimethylformamide (DMF)] was taken as the reduction activity.

[2] = tested on: superoxide anion radicals; assay: Effects on formazan formation in the xanthine-xanthine oxidase-Nitrotetrazolium Blue system; format: biochemical; settings: for Inhibition ratio (%) of formazan formation: phosphate buffer pH 7.8, 30°C, 10 minutes; for formazan formation (result in words): summary of Table-3
Experimental: Specimens were added to a 0.05 M phosphate buffer solution (pH 7.8) containing xanthine, EDTA 2Na and Nitrotetrazolium Blue (NTB) so as to provide the respective final concentrations of 5x10⁻⁵ M, 1x10⁻⁴ M and 5x10⁻⁴ M and warmed at 30°C for 3 minutes. Xanthine oxidase (manufactured by Sigma Corp.) was added, and the resulting specimens were warmed at 30°C for 10 minutes to colorimetrically determine formazan formed by superoxide anion radicals. The inhibition ratio of formazan formation was determined from the results at concentrations of 0.5 mM and 4 mM of each specimen.

IC50 [1] [µM]	Compound	Inhibition ratio (%) of formazan formation ([2]; Concentration 0.5 mM) [%]	Inhibition ratio (%) of formazan formation ([2]; Concentration 4 mM) [%]	formazan formation (result in words) [2]
23	CC1(C)OCC(C2OC(=O)C(O)=C2OCc2ccccn2)O1 [compound 007, L-5,6-O-isopropylidene-3-O-2′-pyridylmethylascorbic acid]	–	–	–
17	L-5,6-O-isopropylidene-3-O-methylcarbomethylascorbic acid [compound 021]	9.2	47.4	remarkably inhibited formazan formation

Compound	IC50 [1] [µM]	Inhibition ratio (%) of formazan formation ([2]; Concentration 0.5 mM) [%]	Inhibition ratio (%) of formazan formation ([2]; Concentration 4 mM) [%]	formazan formation (result in words) [2]
L-5,6-O-isopropylidene-3-O-(3-butanone) ascorbic acid [compound 022]	20	22.6	26.7	remarkably inhibited formazan formation
